The source made the active and inactive calls. No cut-off for these calls is given here.
Experiments:
[1] = Induction of F-actin (unknown origin) polymerization after 1 hr by spectrofluorometric analysis; set-up: species or system Homo sapiens
[2] = tested on: HL-60; assay: Cytotoxicity against human HL60 cells after 72 hrs by MTT assay; format: functional, cell-based; conditions: HL-60, 72 h
[3] = tested on: HL-60; assay: Induction of apoptosis in human HL60 cells assessed as nuclear shrinkage and fragmentation at 30 uM after 12 hrs using rhodamine-phalloidin staining by fluorescence microscopy; format: functional, cell-based
[4] = tested on: HL-60; assay: Induction of apoptosis in human HL60 cells assessed as disruption and aggregation of actin filaments at 30 uM after 12 hrs using rhodamine-phalloidin staining by fluorescence microscopy; format: functional, cell-based
[5] = tested on: HL-60; assay: Induction of apoptosis in human HL60 cells assessed as activation of caspase-3 at 10 to 30 uM after 18 hrs by spectrophotometric analysis; format: functional, cell-based
[6] = tested on: HL-60; assay: Induction of apoptosis in human HL60 cells assessed as DNA fragmentation after 24 hrs by agarose gel electrophoresis; format: functional, cell-based
[7] = tested on: HL-60; assay: Cytotoxicity against human HL60 cells after 24 hrs by trypan blue dye exclusion assay; format: functional, cell-based
[8] = tested on: HL-60; assay: Cytotoxicity against human HL60 cells after 24 hrs by trypan blue dye exclusion assay in presence of Z-VAD-FMK; format: functional, cell-based
[9] = tested on: HL-60; assay: Induction of apoptosis in human HL60 cells assessed as nuclear shrinkage and fragmentation at 30 uM after 12 hrs using rhodamine-phalloidin staining by fluorescence microscopy in presence of Z-VAD-FMK; format: functional, cell-based
[10] = tested on: HL-60; assay: Induction of apoptosis in human HL60 cells assessed as nuclear shrinkage and fragmentation at 1 nM after 12 hrs using rhodamine-phalloidin staining by fluorescence microscopy; format: functional, cell-based
[11] = tested on: HL-60; assay: Induction of apoptosis in human HL60 cells assessed as disruption and aggregation of actin filaments at 1 nM after 12 hrs using rhodamine-phalloidin staining by fluorescence microscopy; format: functional, cell-based
[12] = tested on: HL-60; assay: Induction of apoptosis in human HL60 cells assessed as activation of caspase-3 at 0.1 to 1 nM after 18 hrs by spectrophotometric analysis; format: functional, cell-based
[13] = tested on: HeLa S3; assay: Induction of apoptosis in human HeLaS3 cells assessed as DNA fragmentation after 24 hrs by agarose gel electrophoresis; format: functional, cell-based
[14] = tested on: HeLa S3; assay: Cytotoxicity against human HeLaS3 cells after 48 hrs by trypan blue dye exclusion assay in presence of Z-VAD-FMK; format: functional, cell-based
[15] = tested on: HeLa S3; assay: Cytotoxicity against human HeLaS3 cells after 48 hrs by trypan blue dye exclusion assay; format: functional, cell-based
[16] = Cytotoxicity against human HeLaS3 cells after 72 hrs by MTT assay; format: functional, cell-based; conditions: HeLa S3, 72 h
[17] = tested on: HL-60; assay: Induction of apoptosis in human HL60 cells assessed as nuclear shrinkage and fragmentation at 1 nM after 12 hrs using rhodamine-phalloidin staining by fluorescence microscopy in presence of Z-VAD-FMK; format: functional, cell-based
[18] = tested on: HL-60; assay: Induction of apoptosis in human HL60 cells assessed as disruption and aggregation of actin filaments at 0.1 nM after 12 hrs using rhodamine-phalloidin staining by fluorescence microscopy; format: functional, cell-based

| SMILES | IC50 [1] [µM] | IC50 [2] [µM] | Activity [6] | Activity [7] | Activity [8] | Activity [13] | Activity [14] | Activity [15] | IC50 [16] [µM] | further results |
| --- | --- | --- | --- | --- | --- | --- | --- | --- | --- | --- |
| C/C=C/[C@@H](OC(=O)[C@H](C)N(C)C)[C@H](C)[C@H](OC(C)=O)[C@H](C)/C=C/N(C)C=O | 210 | 240 |  |  |  |  |  |  |  |  |
| CC(=O)O[C@@H]([C@@H](C)[C@@H](/C=C/CCc1ccccc1)OC(=O)[C@H](C)N(C)C)[C@H](C)/C=C/N(C)C=O | 85 | 53 |  |  |  |  |  |  |  |  |
| CC(=O)O[C@@H]([C@@H](C)[C@@H](/C=C/c1ccccc1)OC(=O)[C@H](C)N(C)C)[C@H](C)/C=C/N(C)C=O | 47 | 27.5 |  |  |  |  |  |  |  |  |
| CC(=O)O[C@@H]([C@@H](C)[C@@H](/C=C/CCCCc1ccccc1)OC(=O)[C@H](C)N(C)C)[C@H](C)/C=C/N(C)C=O | 21 | 12.7 | Active | Active | inactive |  |  |  |  | Activity [3]: Active; Activity [4]: Active; Activity [5]: Active; Activity [9]: inactive |
| COCC(C(=O)O[C@@H]1C/C=C/C=C/C(=O)O[C@H]([C@@H](C)[C@@H](O)[C@@H](C)CC[C@@H](OC(=O)C(C)N(C)C)[C@H](C)[C@H](OC(C)=O)[C@H](C)/C=C/N(C)C=O)C/C=C/[C@H](OC)C[C@H](C)C/C=C(\C)[C@@H](OC)CC[C@@H](C)[C@@H](O)[C@@H]1C)N(C)C (some centres not stated) [APLYRONINE A] | 1.6 |  | Active | Dose-dependent effect | inactive | Active | inactive | Dose-dependent effect | 0.00029 | Activity [10]: Active; Activity [11]: Active; Activity [12]: Active; Activity [17]: inactive; Activity [18]: Active |
| COC[C@@H](OC)C(=O)O[C@H](CC[C@H](C)[C@@H](C[C@@H]1OC(=O)C[C@@H](O)C/C=C/C(=O)[C@H](C)[C@H](OC)c2coc(n2)-c2coc(n2)-c2coc(n2)/C=C/C[C@H](OC)[C@H]1C)OC)[C@H](C)[C@H](OC(C)=O)[C@H](C)/C=C/N(C)C=O [MYCALOLIDE B] | 1.7 | 0.0047 | Active | Dose-dependent effect | inactive | Active | inactive | Dose-dependent effect | 0.052 |  |

From ChEMBL document CHEMBL2331136, “Apoptosis-inducing activity of the actin-depolymerizing agent aplyronine A and its side-chain derivatives” (Bioorg Med Chem Lett, 2013)
